Source: patent US20250026796A1 (priority 2022, published 2025)
Where no end group is shown, it is not given here.

Experiments:
[1] = mouse, in vivo
SARS-CoV-2 E (2E) [2] = biological target: T1, SARS-CoV-2 E (2E) (Severe acute respiratory syndrome coronavirus 2, UniProt P0DTC4)
HCoV-HKU1 E protein = HCoV-HKU1 E protein (Human coronavirus HKU1, UniProt Q5MQC8); type: cell-based; details: construct co-transfection, NIH 3T3
Procedure: (§1) For the imaging experiments in FIGS. 1a-1e and 7a-7f, NIH 3T3 cells were plated at a cell density of 2.5×10^5 cells/ml. The following day, the cells were transfected using Lipofectamine 3000 reagents (Thermo-Fisher, #L3000001). 4 μg of plasmid were mixed into 125 μL of serum-free OptiMEM with 5 μL of P3000 reagent. This was then added to another 125 μL of serum-free OptiMEM containing 7.5 μL of Lipofectamine 3000. Plasmid/P3000-lipofectamine complex was incubated for 15 minutes at room temperature, and then added to the plate. The medium was replaced 20-24 h after transfection, and 1 μM of Lysosensor Green DND-189 (Thermo-Fisher, L7535) was added. The cells were incubated for 30 minutes in a 37° C., 5% CO2 incubator. The medium was replaced one final time prior to imaging. The live cell imaging was conducted on a customized/automated fluorescence microscope (Ti—U, Nikon) using an environmental chamber (TOKAI) and the culture medium to maintain normal cell culture conditions (37° C., 5% CO2, 20% O2). […] Fluorescence quantification and analysis was performed with ImageJ software and Prism 7/8/9 (GraphPad). Representative images were also gathered on a Leica DMi8 confocal microscope. The following peptides (>95% purity) were synthesized by Thermo-Fisher/Pierce: […]

SARS-CoV-2 E (2E) [3] = biological target: T1, SARS-CoV-2 E (2E); type: cell-based
MERS-CoV E protein = MERS-CoV E protein (Middle East respiratory syndrome-related coronavirus, UniProt K9N5R3); type: cell-based
MERS-CoV E protein, sequence (K9N5R3 whole entry, looked up): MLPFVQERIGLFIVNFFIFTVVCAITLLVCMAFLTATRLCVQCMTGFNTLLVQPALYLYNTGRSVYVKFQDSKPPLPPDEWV

2E protein = 2E protein (Severe acute respiratory syndrome coronavirus 2, UniProt P0DTC4)
2E protein, sequence (P0DTC4 whole entry, looked up): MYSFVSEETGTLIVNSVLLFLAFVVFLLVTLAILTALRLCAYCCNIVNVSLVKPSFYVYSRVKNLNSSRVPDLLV

HCoV-NL63 E protein [4] = biological target: T2, HCoV-NL63 E protein (Human coronavirus NL63, UniProt Q6Q1S0); type: cell-based; details: construct co-transfection, HEK 293T
T2 sequence (Q6Q1S0 whole entry, looked up): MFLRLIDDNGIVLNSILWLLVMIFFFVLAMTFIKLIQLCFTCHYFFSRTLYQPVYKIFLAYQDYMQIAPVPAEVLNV

[5] = mouse
HCoV-NL63 E protein [6] = biological target: T2, HCoV-NL63 E protein; type: cell-based; details: construct co-transfection, NIH 3T3
Procedure: as §1

T1 sequence (P0DTC4 whole entry, looked up): as the sequence (P0DTC4 whole entry, looked up) above
HCoV-HKU1 E protein, sequence (Q5MQC8 whole entry, looked up): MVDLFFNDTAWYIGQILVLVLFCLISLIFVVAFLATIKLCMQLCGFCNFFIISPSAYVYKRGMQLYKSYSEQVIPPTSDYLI

## GRKKRRQRRRPPQ-MYSFVSDDTGTLIVNSVL-L[C]AlexaFluo594 [TAT-MY18-2ED-Alexa Fluor 594]
NIH 3T3 cells
  Cell-penetrating "on" kinetics: faster cell-penetrating than N-terminal version
[1]
  Detection of fluorescent peptide in nasal tissues: can permeate and is detectable in mouse nasal tissues
[1]; iv
  Detection of fluorescent peptide in lung tissues: can permeate and is detectable in mouse lung tissues
Vero-E6 cells
  Penetration into cells: can penetrate into these cells

## MYSFVSDDTGTLIVNSVL [MY18-2ED]
SARS-CoV-2 E (2E) [2]
  Relative NFAT-FLuc/TK-RLuc activity (effect of 2E on NFAT/AP-1 pathway): significantly improves the inhibitory effect

## VDLFFNETAWYIGQILV [HCoV-HKU1 MY18 D8E]
HCoV-HKU1 E protein
  DND-189 fluorescence (proton homeostasis), HCoV-HKU1 E: could significantly rescue the phenotypes in proton homeostasis

## RQIKIWFQNRRMKWKKMYSFVSEETGTLIVNSVL [Pen-MY18]
SARS-CoV-2 E (2E) [3]
  Relative fluorescent intensity of DND-189 dye compared to mock: significantly lower than mock

## MLPFVQERIGLFIVNFFI [MERS-CoV MY18 WT]
MERS-CoV E protein
  Relative NFAT-FLuc/TK-RLuc activity (effect of MERS-E): could significantly reduce the effect of each E on NFAT/AP-1 reporter

## MYSFVSEETGTLIVNSVL [MY18]
2E protein
  Co-localization with 2E proteins: co-localized with 2E proteins
SARS-CoV-2 WA1 virus
  Inhibition of viral toxicity (cytopathic effect): moderate inhibitory effect on the virus
SARS-CoV-2 E (2E) [2]
  Relative NFAT-FLuc/TK-RLuc activity (effect of 2E on NFAT/AP-1 pathway): significantly suppresses the effect of 2E on the NFAT/AP-1 pathway
SARS-CoV-2 E (2E) [3]
  Effect of synthetic peptide on 2E in DND-189-based pH imaging: does not have any effect on 2E

## GRKKRRQRRRPPQMYSFVSEETGTLIVNSVL [TAT-MY18]
SARS-CoV-2 E (2E) [3]
  Effect of synthetic peptide on 2E in DND-189-based pH imaging: effective cell-penetrating peptide
  Relative fluorescent intensity of DND-189 dye compared to mock: not different from mock

## MFLRLIDDNGIVLNSILW [HCoV-NL63 MY18 WT]
HCoV-NL63 E protein [4]
  Relative NFAT-FLuc/TK-RLuc activity (effect of NL63-E): could significantly reduce the effect of each E on NFAT/AP-1 reporter

## RRRRRRMYSFVSEETGTLIVNSVL [6Arg-MY18]
SARS-CoV-2 E (2E) [3]
  Relative fluorescent intensity of DND-189 dye compared to mock: significantly lower than mock

## GRKKRRQRRRPPQMYSFVSDDTGTLIVNSVL [iPep-SARS2-E]
[5]
  Toxicity in vivo: no obvious toxicity
[5]; in vivo
  Body weight: did not find that there are differences
  C5a (inflammation marker): did not find that there are differences
  Cxc112 (inflammation marker): did not find that there are differences
SARS-CoV-2 WA1 virus; WA1 virus
  IC50: ~200 nM

## MFLRLIEEDGIVLNSILW [HCoV-NL63 MY18 2DE & N9D]
HCoV-NL63 E protein [4]
  Relative NFAT-FLuc/TK-RLuc activity (effect of NL63-E): effective to inhibit the cellular toxicity
HCoV-NL63 E protein [6]
  DND-189 fluorescence (proton homeostasis), HCoV-NL63 E: could significantly rescue the phenotypes in proton homeostasis
